# Measured values: patent publication US8076452B2, “Streptavidin-binding peptide” (priority 2002, dated 2011)
# Like-named read-outs stand apart in the source and are kept apart here.
# Columns and labels:
# streptavidin [1] = target: T1, streptavidin (Streptomyces avidinii, UniProt P22629); settings: prior art; read-out: dissociation constant Kd; cited from earlier work
# streptavidin [2] = target: T1, streptavidin; experiment: Dissociation constant measurement, BiacoreX, NTA sensor chip (first measurements); format: binding; settings: for Kd: FABP with N-terminal 15-aa peptide, C-terminal His6 on NTA chip
# Excerpt: Using standard methods for this technology, the FAB protein (fatty acid binding protein) (FABP) from bovine hearts was expressed in vitro in a cell-free protein biosynthesis by means of a coupled transcription/translation system. The expressed FAB protein had at the N terminus an additional streptavidin-binding peptide composed of 15 amino acids with different amino acid sequences as fusion partners.
# Two binding peptides contain in their amino acid sequence the HPQ motif (motif 1 and 2) described in the prior art, and two of them contain the streptavidin-binding peptide according to SEQ ID NOS: 1-6 according to the invention (motif 3 and 4). In addition, the expressed proteins were provided at the C terminus with a “His-tag” consisting of 6 histidines. The proteins were purified by means of affinity chromatography via Ni2+IDA-agarose using standard methods. It can be seen that with equal length, binding peptides of a sequence according to the invention have a substantially lower dissociation constant than a binding peptide with HPQ motif.
# The measurements of the dissociation constant were performed with a BiacoreX system and the sensor chip NTA of the company Biacore. The proteins generated during the expression described in Example 1 were investigated, i.e. FAB proteins, which had at the N terminus a peptide consisting of 15 amino acids as fusion partners and at the C terminus 6 histidines, which were needed for the immobilization on the sensor chip. The binding affinity of the proteins generated during the expression to streptavidin described in Example 1 was measured in the Biacore device according to manufacturer's instructions. The protein to be investigated is on the sensor chip, and a streptavidin solution having a defined concentration is sprayed in. The interaction (binding) between the two molecules is measured by the device and quantified as so-called resonance units (RU). For the measurement, the buffers specified by the manufacturer were used.
# streptavidin [3] = target: T1, streptavidin; experiment: Binding constants by surface plasmon resonance, BIAcore NTA chip, optimized measuring method; settings: peptide N-terminal of FABP, C-terminal Gly2-His8, 1,100 RU immobilized
# Excerpt: The information supplied by the substitution analysis was verified by determining the binding constants of different peptides by surface plasmon resonance spectroscopy using a BIAcore device. The measurements were made with the NTA sensor chip of the company BIAcore and by means of the fatty acid-binding protein from bovine hearts (FABP). The FABP served for the immobilization and presentation of the peptide. Further, it was intended to thus simulate the conditions occurring in an affinity chromatography, since the peptide is to be used in the future as an affinity peptide for the purification of proteins. In contrast to the first measurements, where the peptides to be verified replaced the four N terminal amino acids of the FABP, the arrangement of the peptides was this time also N terminal, but they were not part of the FABP. The His-tag necessary for the immobilization was also modified. It was located same as for the first measurements at the C terminus of the FABP, was however extended from six to eight histidines and further spaced by a linker consisting of two glycines from the FABP. Thereby, the immobilization of the ligands could distinctly be improved, and thus the drift of the base line resulting from the washing-off of the ligand could be minimized. For every measurement, an identical amount of the respective FABPs was immobilized, what corresponded to a rise of the base line by 1,100 resonance units (RU). As a reference was used the FABP with the His-tag, but without N terminal binding peptide.
# The binding constants obtained with the optimized measuring method were the following: […]
# streptavidin [4] = target: T1, streptavidin; experiment: Substitution analysis by spot synthesis on cellulose membrane, peroxidase-labeled streptavidin, luminescence; format: binding; settings: peptide spots on cellulose membrane
# Excerpt: The binding peptide (FAx 3) with the sequence DVEAWLDERVPLVET [SEQ ID NO: 16] was subjected to a substitution analysis, and it was intended thereby to identify a possible minimum motif (=shortened peptide) and examine the effect of individual amino acid exchanges on the binding specificity. In a substitution analysis, peptides are synthesized by means of spot methods (Frank, R. 1992) on a cellulose membrane serving as a solid phase. Every position of the peptide comprising 15 amino acids was systematically replaced by the other 19 L amino acids.
# The substitution analysis was incubated with a peroxidase-labeled streptavidin and developed with a luminescence substrate. Thereby it was possible to find out, how far the peptide can be shortened and which amino acids are “conserved” and thus not or only very poorly exchangeable. […] The substitution analysis also indicated positions, where the exchange of the original amino acid by another one could result in an improvement of the streptavidin binding.
# streptavidin-Sepharose = streptavidin-Sepharose (Streptomyces avidinii, UniProt P22629); experiment: Purification of the FABP fusion protein via streptavidin-Sepharose affinity column
# Sequence of streptavidin-Sepharose (P22629 25-183): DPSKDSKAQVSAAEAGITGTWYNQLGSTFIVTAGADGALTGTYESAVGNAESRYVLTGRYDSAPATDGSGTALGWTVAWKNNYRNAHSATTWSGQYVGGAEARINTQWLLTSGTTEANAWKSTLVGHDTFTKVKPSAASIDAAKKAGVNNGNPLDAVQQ
# Excerpt: (§1) Using standard methods, the FAB protein having at the N terminus an additional peptide consisting of 15 amino acids with the amino acid sequence DVEAWLDERVPLVET [SEQ ID NO: 16] (motif 3) as fusion partners, is expressed in vitro in a cell-free protein biosynthesis by means of a coupled transcription/translation system. For purification of the overexpressed defined protein, the streptavidin was coupled to a solid phase. As a solid phase was used a Sepharose. The expressed FAB protein was then purified using standard methods via a column comprising streptavidin-Sepharose or StrepTactin-Sepharose. For the purification the following buffers were used: washing buffer (100 mM Tris-HCl (pH 8.0), 150 mM NaCl, 1 mM EDTA).
# (§2) For the elution of streptavidin, the washing buffer contained 2 mM biotin, and for the elution of StrepTactin, the washing buffer contained 2.5 mM desthiobiotin.
# (§3) The percentage distribution of the used defined protein on the various fractions of the affinity chromatography can be taken from Table 3. In Table 3, D represents the application of sample/passage, W washing fraction, and E elution fraction.
# StrepTactin-Sepharose = StrepTactin-Sepharose (Streptomyces avidinii, UniProt P22629, E68V/S69T/V71R); experiment: Purification of the FABP fusion protein via StrepTactin-Sepharose affinity column
# Sequence of StrepTactin-Sepharose (P22629 38-163 E68V/S69T/V71R): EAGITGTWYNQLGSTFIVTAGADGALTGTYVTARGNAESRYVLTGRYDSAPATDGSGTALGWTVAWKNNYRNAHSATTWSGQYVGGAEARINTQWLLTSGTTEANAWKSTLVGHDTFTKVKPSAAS
# Excerpt: as §1, §2, §3
# T1 sequence (P22629 25-183, species assumed): as the sequence (P22629 25-183) above
substance,measurement,setting,value
AWRHPQFGG [Strep-tag I],Kd,streptavidin [1],10 to 37 µM
"DLYDIDRNWVGHPQG [motif 1, D L Y D I D R N W V G H P Q G, reference compound]",Kd,streptavidin [2],8 µM
same,resonance units (RU),streptavidin [2]; Streptavidin conc. 500 nM,62 RU
same,resonance units (RU),streptavidin [2]; Streptavidin conc. 1 μM,123 RU
same,resonance units (RU),streptavidin [2]; Streptavidin conc. 2 μM,233 RU
same,resonance units (RU),streptavidin [2]; Streptavidin conc. 4 μM,407 RU
same,resonance units (RU),streptavidin [2]; Streptavidin conc. 8 μM,621 RU
same,resonance units (RU),streptavidin [2]; Streptavidin conc. 16 μM,779 RU
same,resonance units (RU),streptavidin [2]; Streptavidin conc. 32 μM,955 RU
"DNYDADLAWDTHPQD [motif 2, D N Y D A D L A W D T H P Q D, reference compound]",Kd,streptavidin [2],70 µM
same,resonance units (RU),streptavidin [2]; Streptavidin conc. 3 μM,64 RU
same,resonance units (RU),streptavidin [2]; Streptavidin conc. 6 μM,98 RU
same,resonance units (RU),streptavidin [2]; Streptavidin conc. 15 μM,201 RU
same,resonance units (RU),streptavidin [2]; Streptavidin conc. 30 μM,337 RU
same,resonance units (RU),streptavidin [2]; Streptavidin conc. 60 μM,536 RU
DVDAWLDER,Kd,streptavidin [3]; read-out: Kd,0.94 ± 0.14 µM
DVEAWFDER,Kd,streptavidin [3],not measurable
"DVEAWIADPAVHFTT [motif 4, D V E A W I A D P A V H F T T]",Kd,streptavidin [2],0.2 µM
same,resonance units (RU),streptavidin [2]; Streptavidin conc. 30 nM,68 RU
same,resonance units (RU),streptavidin [2]; Streptavidin conc. 60 nM,171 RU
same,resonance units (RU),streptavidin [2]; Streptavidin conc. 125 nM,280 RU
same,resonance units (RU),streptavidin [2]; Streptavidin conc. 250 nM,384 RU
same,resonance units (RU),streptavidin [2]; Streptavidin conc. 500 nM,478 RU
same,resonance units (RU),streptavidin [2]; Streptavidin conc. 1 μM,560 RU
same,resonance units (RU),streptavidin [2]; Streptavidin conc. 2 μM,644 RU
DVEAWL,streptavidin binding,streptavidin [4],sufficient streptavidin binding
DVEAWLDAR,Kd,streptavidin [3]; read-out: Kd,0.16 ± 0.03 µM
DVEAWLDER,Kd,streptavidin [3]; read-out: Kd,0.24 ± 0.04 µM
same,streptavidin binding,streptavidin [4],clearly better streptavidin binding
"DVEAWLDERVPLVET [motif 3, D V E A W L D E R V P L V E T]",Kd,streptavidin [2],0.084 µM
same,resonance units (RU),streptavidin [2]; Streptavidin conc. 15 nM,98 RU
same,resonance units (RU),streptavidin [2]; Streptavidin conc. 30 nM,242 RU
same,resonance units (RU),streptavidin [2]; Streptavidin conc. 60 nM,461 RU
same,resonance units (RU),streptavidin [2]; Streptavidin conc. 125 nM,613 RU
same,resonance units (RU),streptavidin [2]; Streptavidin conc. 250 nM,704 RU
same,resonance units (RU),streptavidin [2]; Streptavidin conc. 500 nM,786 RU
same,resonance units (RU),streptavidin [2]; Streptavidin conc. 2 μM,946 RU
same,resonance units (RU),streptavidin [2]; Streptavidin conc. 4 μM,983 RU
same,Kd,streptavidin [3]; read-out: Kd,0.0036 ± 0.0006 µM
same,"percentage distribution of the protein, fraction D",streptavidin-Sepharose; application of sample/passage,3.5%
same,"percentage distribution of the protein, fraction E1","streptavidin-Sepharose; elution fraction 1, 2 mM biotin",0.4%
same,"percentage distribution of the protein, fraction E2","streptavidin-Sepharose; elution fraction 2, 2 mM biotin",76.9%
same,"percentage distribution of the protein, fraction E3","streptavidin-Sepharose; elution fraction 3, 2 mM biotin",0.7%
same,applied protein recovered for the eluate,streptavidin-Sepharose; streptavidin-Sepharose,78%
same,applied protein recovered from the column,streptavidin-Sepharose; streptavidin-Sepharose,90%
same,"percentage distribution of the protein, Tot.",streptavidin-Sepharose; sum of all fractions,89.6%
same,"percentage distribution of the protein, fraction W1",streptavidin-Sepharose; washing fraction 1,6.8%
same,"percentage distribution of the protein, fraction W2",streptavidin-Sepharose; washing fraction 2,1.0%
same,"percentage distribution of the protein, fraction W3",streptavidin-Sepharose; washing fraction 3,0.3%
same,applied protein recovered for the eluate,StrepTactin-Sepharose; StrepTactin-Sepharose,71%
same,applied protein recovered from the column,StrepTactin-Sepharose; StrepTactin-Sepharose,84%
same,"percentage distribution of the protein, fraction D",StrepTactin-Sepharose; application of sample/passage,3.0%
same,"percentage distribution of the protein, fraction E1","StrepTactin-Sepharose; elution fraction 1, 2.5 mM desthiobiotin",0.9%
same,"percentage distribution of the protein, fraction E2","StrepTactin-Sepharose; elution fraction 2, 2.5 mM desthiobiotin",45.9%
same,"percentage distribution of the protein, fraction E3","StrepTactin-Sepharose; elution fraction 3, 2.5 mM desthiobiotin",23.2%
same,"percentage distribution of the protein, fraction E4","StrepTactin-Sepharose; elution fraction 4, 2.5 mM desthiobiotin",1.0%
same,"percentage distribution of the protein, fraction E5","StrepTactin-Sepharose; elution fraction 5, 2.5 mM desthiobiotin",0.3%
same,"percentage distribution of the protein, Tot.",StrepTactin-Sepharose; sum of all fractions,84.4%
same,"percentage distribution of the protein, fraction W1",StrepTactin-Sepharose; washing fraction 1,7.4%
same,"percentage distribution of the protein, fraction W2",StrepTactin-Sepharose; washing fraction 2,1.8%
same,"percentage distribution of the protein, fraction W3",StrepTactin-Sepharose; washing fraction 3,0.9%
DVEAWLGAR,Kd,streptavidin [3]; read-out: Kd,0.017 ± 0.004 µM
DVEAWLGARVPLVET,Kd,streptavidin [3]; read-out: Kd,0.0041 ± 0.0006 µM
DVEAWLGER,Kd,streptavidin [3]; read-out: Kd,0.017 ± 0.004 µM
DVEAWLGERVPLVET,Kd,streptavidin [3]; read-out: Kd,0.0042 ± 0.0007 µM
DVEAWRDER,Kd,streptavidin [3],not measurable
DVGAWLDER,Kd,streptavidin [3]; read-out: Kd,0.57 ± 0.09 µM
MDEKTTGWRGGIIVVEGLAGELEQLRARLEHHPQGQREP [SBP-tag],Kd,streptavidin [1],0.0025 µM
WSHPQFEK [Strep-tag II],Kd,streptavidin [1],18 to 72 µM
